In one assay the test system is three TNBC lines. The assay is described as follows: Combinatorial screen of BRD inhibitors with or without BAY-876 (confluency). The class given is cell-based, human. The protocol:
Fig. 6 BRD inhibitors leverage metabolic adaptations induced by glucose transporter I (GLUT1) inhibition in TNBC. a BRD inhibitor screening across ten TNBC cell lines. Cells were treated with indicated BRD inhibitors at 3 μM for 7 days. Confluency was measured using an IncuCyte ZOOM live cell imaging device. Data shown are mean ± s.d. of n = 4 independent cell culture grown and treated cells. A two-sided Student’s t test was used to derive the p-values. b SLC2A1 gene expression in the The Cancer Genome Atlas (TCGA) breast datasets. The cohorts were divided into TNBCs (red) and non-TNBCs (blue) according to PAM50 classification. Gene expression is reported as median-centered expression log2 values. The number of patients (n) per group is indicated. P-values were determined using a Wilcoxon's rank-sum test. c Glucose uptake in MDA-MB-436 cells in response to BAY-876 treatment relative to vehicle. MDA-MB-436 cells were treated with dimethyl sulfoxide (DMSO) or 3 µM BAY-876 for 5 days. Graph indicates mean, error bars denote s.d. from three independent assays and p-value was computed using the Benjamini-Hochberg t test; ***p < 0.001. d Effects of BAY-876 treatment on the intracellular acetyl-CoA level. Graph indicates mean, error bars denote s.d. from three independent assays and p-value was computed using the Benjamini-Hochberg t test; ***p < 0.001. e Effects of BAY-876 treatment on intracellular NAD^+/NADH level. Graph indicates the mean, error bars denote s.d. from three independent assays and p-value computed using the Benjamini-Hochberg t test; **p < 0.01. f Immunoblot analysis of H3 and H4 acetylation in MDA-MB-436 cells before and after BAY-876 treatment. P-value computed using the Benjamini-Hochberg t test; ***p < 0.001. g Cell growth effects of BAY-876 treatment on three representative cell lines. n.s. not significant. h Combinatorial screening of BRD inhibitors with or without 3 μM BAY-876 across ten TNBC cell lines. Cell confluency was obtained from the endpoint Incucyte scanning. (Left) Heatmap of the combinatorial screening results; (Right) Cell confluency after treatment with three potential BRDi candidates at 3 μM in the presence or absence of 3 μM BAY-876 in three representative cell lines. Graph indicates mean, error bars denote s.d. from three independent assays and p-values were computed using the Benjamini-Hochberg t test; **p < 0.01; ***p < 0.001. Raw data images are available in Supplementary Fig. 4
TNBC cell lines were seeded in sterile, transparent 384-well plates at 500 cells per well in 50 µl media. Chemical probes were delivered in dimethyl sulfoxide (DMSO). Cell confluency at 7 days was evaluated using an Incucyte ZOOM live cell imaging device (Essen Bioscence) and analyzed with the Incucyte ZOOM (2016A) software based on phase contrast image.

The next assay deals with T1, PCAF (Homo sapiens, UniProt Q92831).
T1 sequence (Q92831 723-827 limits assumed): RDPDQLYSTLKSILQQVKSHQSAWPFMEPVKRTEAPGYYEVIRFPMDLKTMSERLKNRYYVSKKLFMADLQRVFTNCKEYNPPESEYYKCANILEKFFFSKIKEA
Set-up: purchased; method as in ref 2 (suppl.), 26 (main text). As to conditions: BROMOscan; ref 2 (suppl.), 26; cited from earlier work.

A further assay addresses p300. As to conditions: ITC data; ref 9 (suppl.); cited from earlier work.
A further assay has as its system TNBC cell lines. The assay is described as follows: OF-1 IC50 in glucose deprivation media. The class given is cell-based, human. The settings on record: 7 days. From the text:
Graph indicates mean, error bars denote s.d. from eight wells (from two independent assays) and p-value was computed using the Benjamini-Hochberg t test; ***p < 0.001. d Immunoblot validation of BRPF knockdown in MDA-MB-436 cells. e Quantitative real-time PCR (RT-qPCR) validation of BRPF knockdown in MDA-MB-436 cells. […] Raw data images are available in Supplementary Fig. 4 […]
Wood & Pier Lorenzo Puri Scientific Reports volume 7, Article number: 6153 (2017)) as well as the role of the BET proteins in muscle differentiation (Roberts et al, Scientific reports 2017: BRD3 and BRD4 BET Bromodomain Proteins Differentially Regulate Skeletal Myogenesis). […]
Additional minor comment: The writing in the figure is often not readable (very low resolution) […]
with 0.1% DMSO (vol/vol). Cell viability at 7 days was evaluated using Incucyte ZOOM live cell imaging device (Essen Bioscence) and analyzed with Incucyte ZOOM (2016A) software based […]
In this study, Wu and colleagues report on characterization and possible applications of a set of 25 inhibitors for bromodomain. The authors evaluated selectivities of these inhibitors by measuring Kds for the interactions with a large number of bromodomains using ITC and BROMOscan. […]

The source of these data is paper PMC6478789, “A chemical toolbox for the study of bromodomains and epigenetic signaling” (Nature Communications, 2019).

SMILES strings stand for the structures.

Regarding `Cc1c(NC(=O)c2cc(C(N)=O)nc3cc(F)ccc23)c(C(F)(F)F)nn1Cc1ccc(C#N)cc1` [BAY-876], the “cell growth, treatment alone” value in the assay on three TNBC lines (3 μM alone) was “no effect”.
For `CN1C[C@H](Nc2cnn(C)c(=O)c2Br)C[C@H](c2ccccc2)C1` [GSK4027], on PCAF, the Kd (commonly a measure of binding affinity in units of concentration) is 1.4 nM.
For the molecule `CCC(=O)N1CCOc2c(cc(-c3ccc(OC)c(OC)c3)cc2OCC2CCCN(C)C2)C1` (stereo not drawn) [I-CBP112], the Kd on p300 is 625 nM.
On to `COc1cc2c(cc1NS(=O)(=O)c1ccc(Br)cc1C)n(C)c(=O)n2C` [OF-1], for which, in the assay on three TNBC lines (3 μM probe + 3 μM BAY-876), the “combination effect with BAY-876 across the three cell lines” value is listed as “strong synergistic effect across all three cell lines” and the “viability in combination with BAY-876” value was “significant decrease in viability”. The OF-1 sensitivity entry with TNBC cell lines is on record as “increase of OF-1 sensitivity”.
